Experimental data as given in EP3290040A1, “PROPHYLACTIC AND THERAPEUTIC AGENT FOR COMPLICATIONS AFTER CATARACT SURGERY” (Honjo, Megumi, priority 2015, dated 2016).

Assays:
Format in all cases: cell-based
Human normal fibroblasts = assay: Fibroblast proliferation, BrdU incorporation (Cell Proliferation ELISA BrdU kit); settings: cultured 2 days, no added Ripasudil = 100%
Experimental: Human normal fibroblasts (Sanko Junyaku Co., Ltd.) were seeded at 2000 cells/well and cultured overnight. Next day, the medium (FGM-2 (Sanko Junyaku Co., Ltd.)) was exchanged (150 µL) and then Ripasudil was added in a volume of 10 µL to make final concentrations of 0.1 µM, 1.0 µM, and 10.0 µM. […] Fixation and antibody addition, washing and color development, and reaction stopping were performed according to the protocol of the Cell Proliferation ELISA BrdU kit (Roche). Then, a plate reader was used to measure OD540-620 to evaluate the action of Ripasudil on fibroblast proliferation. […]

[1] = system: Human lens epithelial cells (SRA 01/04); assay: Cell proliferation (DNA synthesis ability) of lens epithelial cells, BrdU incorporation ELISA; settings: SRA 01/04 cells, 24 hours, FIG. 1
Experimental: Human lens epithelial cells (SRA 01/04 (RIKEN Cell Bank)) were cultured using 20% FBS-DMEM medium under conditions at 37°C and 5% CO2. The concentration of SRA 01/04 cells was adjusted using 2% FBS-DMEM medium, and the cells were seeded in a 96-well plate at 100 µL/well (5000 cells/well) and incubated for 24 hours under conditions at 37°C and 5% CO2. The medium was exchanged to 5% FBS-DMEM medium, to which TGFβ was added at 10 ng/mL (final concentration) or Ripasudil at 10, 30, or 100 µM (final concentration), and then the cells were cultured for another 24 hours. The cell proliferation ELISA, BrdU (colorimetric) kit (Roche) was used to measure the amount of intracellular 5-bromo-2'-deoxyuridine (BrdU) incorporation at a measurement wavelength of 450 nm with Multiskan MS version 8.0 (LABSYSTEMS), thereby to evaluate the effect on the cell proliferation of SRA 01/04 cells.

HT-1080 cell = assay: Inhibitory action on collagen gel contraction (cell-containing collagen gel); design: key: When a contraction level was almost equal to that of a group to which Ripasudil was not added, (+) was used; (++) was used in the case where contraction was inhibited; (+++) was used in the case where contraction was significantly inhibited; settings: HT1080 collagen gel, observed after two or three days
Experimental: HT-1080 cell suspension adjusted to a density of 150,000 to 200,000 cells/mL with a medium (medium: E'MEM (Sigma)/10% FBS/NEAA/PCSM), and a solution, obtained by mixing A, B and C solutions (A solution: Cellmatrix (Collagen Type I 3 mg/mL), B solution: concentrated culture medium, 10 x MEM Hank's culture medium, and C solution: buffer for reconstitution) of collagen gel culture kit (Nitta Gelatin Inc.) mixed at a ratio of 8 : 1 : 1 and cooling the obtained mixture, were mixed at a ratio of 1.4 : 1, and the obtained mixture was seeded in a 48 Well Plate at 500 µL/well and gelatinized in a CO2 incubator to produce a cell-containing collagen gel. After gelation, 1 mL of the medium in which Ripasudil was adjusted to 0.1 µM, 1.0 µM or 10.0 µM was added on the gel, and an injection needle was inserted between the gel and the wall surface to release the gel from the wall surface, and the gel was incubated to stand in a CO2 incubator. After two or three days, the contraction of the gel was observed, and photos were taken to evaluate the actions of Ripasudil.

C[C@H]1CNCCCN1S(=O)(=O)c1cccc2cncc(F)c12 [Ripasudil, 4-fluoro-5-{[(2S)-2-methyl-1,4-diazepan-1-yl]sulfonyl}isoqu inoline]
BrdU incorporation (% of control) (Human normal fibroblasts; Ripasudil 0.1 µM): 80.0 % of control | BrdU incorporation (% of control) (Human normal fibroblasts; Ripasudil 1.0 µM): 59.3 % of control | BrdU incorporation (% of control) (Human normal fibroblasts; Ripasudil 10.0 µM): 10.9 % of control | DNA synthesis of human lens epithelial cells ([1]; Ripasudil 30 µM): statistically significant decrease | DNA synthesis of human lens epithelial cells ([1]; Ripasudil 10, 30 or 100 µM): dose-dependent inhibitory action | Inhibition of contraction (HT-1080 cell; Ripasudil 0.1 µM): + | Inhibition of contraction (HT-1080 cell; Ripasudil 1.0 µM): ++ | Inhibition of contraction (HT-1080 cell; Ripasudil 10.0 µM): +++
